Results: US20240050434A1, “HORMAD1 THERAPEUTICS” (Royal Cancer Hospital, priority 2020, published 2024)
Entries after “also recorded” stand apart in the source; their conditions may differ.

Columns and labels:
[1] = system: HORMAD1-positive and HORMAD1-negative triple negative breast cancer patient-derived organoids; assay: Patient-derived TNBC organoids, viability by cell titre glo; assay type: cell-based, human; settings: 14 days
Description: RPE1 cells were reverse transfected with BUB1 or control siRNA particles for 3 days. Cell lysates were collected, and analysed by western blotting using anti-BUB1 and anti-β-ACTIN antibodies. B. Graph indicating reduced cellular survival in HORMAD1 expressing RPE1 cells depleted of BUB1 using siRNA. RPE1 cells expressing a doxycycline-inducible HORMAD1 expression construct were exposed to doxycycline or vehicle, and were reverse transfected with BUB1 or control siRNA particles. 5 days post transfection, cellular viability was estimated using cell titer glo reagent and surviving fractions were calculated relative to DMSO treated cells. […] Statistical significance estimated using a one-way ANOVA with Sidak's correction. C. […] 7-10 days post doxycycline induction, cells were fixed, stained with SRB, and cellular viability was estimated using SRB absorbance readings. […] Cells were fixed, stained with SRB, and cellular viability was estimated using SRB absorbance readings. […] Cells were imaged every 4 hours, and confluence was continually measured using incucyte software. […] Cellular viability was estimated using cell titer glo reagent and surviving fractions were calculated relative to DMSO treated cells. […]
A further experiment was conducted to test the efficacy of BUB1 inhibitors to selectively kill HORMAD1-positive human tumours. […] Surviving fractions were calculated (normalised to vehicle treated cells). […]

[2] = system: RPE1 cells expressing a doxycycline-inducible HORMAD1 construct; assay: Clonogenic survival assay (SRB) in RPE1 cells with doxycycline-inducible HORMAD1; assay type: cell-based; settings: for clonogenic survival / sensitivity of HORMAD1 expressing versus HORMAD1-negative RPE1 cells: increasing doses, 7-14 days, normalised to vehicle
Method: Cell confluence was analysed every 6 hours for 10 days, using incucyte software. Data are from 3 biological replicates and analysed using a two-way ANOVA. […] RPE1 cells expressing a doxycycline-inducible HORMAD1 expression construct were exposed to doxycycline or vehicle (H2O) and were exposed to 20 nM of the Aurora B inhibitor, AZD1152-HQPA. Cell confluence was analysed every 6 hours for 10 days, using incucyte software. Data are from 3 biological replicates and analysed using a two-way ANOVA. […] 7-10 days post drugging, cells were fixed, stained with SRB, and colonies were counted using Cell Profiler. […] 10 days post drugging, cells were fixed, stained with SRB, and colonies were counted using Cell Profiler. […] RPE1 cells expressing a doxycycline-inducible HORMAD1 expression construct were exposed to doxycycline or vehicle (H2O) and to increasing doses of the Aurora B inhibitor, AZD1152-HQPA. 7-10 days post drugging, cells were fixed, stained with SRB, and colonies were counted using Cell Profiler. […] SUM159 cells expressing a doxycycline-inducible HORMAD1 expression construct were exposed to doxycycline or vehicle (H2O) and to increasing doses of the Aurora B inhibitor, AZD1152-HQPA. 10 days post drugging, cells were fixed, stained with SRB, and colonies were counted using Cell Profiler.
RPE1 cells were reverse transfected with BUB1 or control siRNA particles for 3 days. Cell lysates were collected, and analysed by western blotting using anti-BUB1 and anti-β-ACTIN antibodies. […] RPE1 cells expressing a doxycycline-inducible HORMAD1 expression construct were exposed to doxycycline or vehicle, and were reverse transfected with BUB1 or control siRNA particles. 5 days post transfection, cellular viability was estimated using cell titer glo reagent and surviving fractions were calculated relative to DMSO treated cells. […] Statistical significance estimated using a one-way ANOVA with Sidak's correction. C. Western blot illustrating expression of HORMAD1 in wild-type RPE1 cells and RPE1 cells depleted of BUB1 using CRISPR. WT and BUB1 depleted RPE1 cells expressing a doxycycline-inducible HORMAD1 expression construct, were exposed to doxycycline or vehicle for 3 days. Cell lysates were collected, and analysed by SDS-PAGE and western blotting using anti-HORMAD1, anti-H3 and anti-BUB1 antibodies. […] WT and BUB1 depleted RPE1 cells expressing a doxycycline-inducible HORMAD1 expression construct were exposed to doxycycline or vehicle. 7-10 days post doxycycline induction, cells were fixed, stained with SRB, and cellular viability was estimated using SRB absorbance readings. […] Statistical significance estimated using a one-way ANOVA with Sidak's correction. […] RPE1 expressing a doxycycline-inducible HORMAD1 expression construct, were exposed to doxycycline or vehicle. […] Cells were fixed, stained with SRB, and cellular viability was estimated using SRB absorbance readings. […] Cells were imaged every 4 hours, and confluence was continually measured using incucyte software. Growth curves were plotted, based on confluence. Data represent 3 biological replicas. […] Patient-derived organoids models were grown in culture and cell lysates collected and analysed using SDS-PAGE and western blotting using anti-HORMAD1 and anti-β-ACTIN antibodies. […] Cellular viability was estimated using cell titer glo reagent and surviving fractions were calculated relative to DMSO treated cells. […] Left, dose response curves for each organoid.

| SMILES | growth inhibition of HORMAD1 expressing versus HORMAD1-negative patient-derived organoids (AURORA B inhibitor) ([1]; BTBC673PO versus WHIM21XO, BXO88XO, BXO78XO) | clonogenic survival / sensitivity of HORMAD1 expressing versus HORMAD1-negative RPE1 cells [2] | growth inhibition of HORMAD1-expressing versus HORMAD1-negative patient-derived organoids (BUB1 inhibitor) ([1]; 3 HORMAD1-positive and 5 HORMAD1-negative models) | reduction of clonogenic capacity of RPE1 cells in presence of HORMAD1 expression compared to RPE1 cells not expressing HORMAD1 ([2]; 10 days post drugging) |
| --- | --- | --- | --- | --- |
| CCN(CCO)CCCOc1ccc2c(Nc3cc(CC(=O)Nc4cccc(F)c4)[nH]n3)ncnc2c1 [AZD1152-HQPA] | growth inhibition was more effective | more effectively inhibited; also recorded: reduced clonogenic survival; also recorded: increased Aurora B inhibitor sensitivity | – | – |
| COc1cnccc1Nc1nc(-c2nn(Cc3c(F)cc(OCCO)cc3F)c3ccccc23)ncc1OC [BAY-1816032] | – | increased cellular sensitivity | more effectively inhibited; also recorded: increased BUB1 inhibitor sensitivity | 60% |
